Data published in publication PMC8156061, “Design, Synthesis, and Anticancer Screening for Repurposed Pyrazolo[3,4-d]pyrimidine Derivatives on Four Mammalian Cancer Cell Lines” (Molecules, 2021).

Experiments:
male albino rats = experiment: In vivo toxicity evaluation: serum hepatic and renal biochemical parameters in rats; set-up: species or system rat; conditions: 20 mg/kg/day orally twice weekly for 6 weeks; for ALP / ALT / AST / Albumin / Bilirubin / Cholesterol / Triglyceride: rat serum; for Overall in vivo toxicity assessment: rats, versus healthy control group
From the text: Before the assessment of the anticancer activity of the compounds, in the present study, we examined their toxicity in vivo on normal tissues.
Male albino rats (150 g average weight) were purchased from the animal house of the Institute of Graduate Studies and Research, Alexandria University, Egypt. The animals were housed under standardized environmental conditions, fed with a standard diet and water, and left to acclimate to the environment for one week prior to inclusion in the experiment. All of the animal experiments were conducted in accordance with the guidelines for the care and use of laboratory animals of the National Institutes of Health (NIH 1985). The experimental procedures employed were ethically reviewed and approved by the Institutional Animal Care and Use Committee (IACUC) of Alexandria University (Ethical approval number of the study: AU14-200922-1-8A) and “declaration of Helsinki”. Four groups of rats were administered 20 mg/kg/day of compounds 5, 6, and 7 orally twice weekly for 6 weeks. Liver enzymes and other liver biomarkers together with creatinine and urea were measured (Table 1).
The collected blood was allowed to clot, the serum was separated at 2000× g, and the biochemical markers of hepatic damage, including serum ALT, AST [33], ALP [34], albumin [35], total bilirubin [36], TG [37], urea, creatinine, and total cholesterol, were estimated according to previously reported methods. These parameters were determined using available commercial kits (ARE) following the instructions of the manufacturer.

HT1080 cells = experiment: Cell viability, crystal violet staining, HT1080; format: cell-based, human; conditions: for first concentration with significant reduction in cell viability / IC50: HT1080, 48 h; for first concentration with significant reduction in cell viability: versus control; for IC50: Homo sapiens, HT-1080
Method: (§1) A (4,5-dimethylthiazol-2-yl)-2,5-diphenyltetrazolium) MTT assay was used for the determination of the cytotoxic effects of three compounds (5, 6, and 7) in vitro (Figure 9). Hela, HT1080, Caco-2, and A549 cells were treated with various concentrations of the compounds employed in the current study (0, 1, 10, 50, 100, 500 µM) for 48 h.
(§2) Figure 9 Normalised percentage cell viability inhibition of compounds 5 and 7, measured by three independent MTT assays in A549 and Caco-2 cell lines and by three independent experiments with crystal violet staining in Hela and HT1080 cell lines. Cells were treated with different concentrations (from 1 and up to 500 µM) of the compounds for 48 h, * = first concentration significant reduction in cell viability in comparison to the control.
(§3) Human fibrosarcoma (HT1080), cervical cancer (Hela), colorectal cancer (Caco-2), and human lung cancer cell lines (A549) were purchased from […] (ECACC, Salisbury, UK). Cervical cancer cells (Hela) and fibrosarcoma cells (HT-1080) were maintained in a RPMI medium supplemented with 10% foetal bovine serum (FBS) and were expanded at 37 °C and 5% CO2. Caco-2 and A549 cells were grown in Dulbecco’s modified eagle medium (DMEM)-high glucose (biowest, Riverside, MO, USA) enriched with (10% v/v) (foetal bovine serum) FBS (biowest, Riverside, MO, USA) and antibiotics (100 U/mL penicillin, 100 μg mL streptomycin) (Lonza, Basel, Switzerland). Cells were maintained at 37 °C in an incubator with 5% CO2 atmosphere. Part of the experiments were carried out in CERRMA (Center of Excellence for Research in Regenerative Medicine and its Applications), Faculty of Medicine, Alexandria University.
(§4) Cervical Hela and HT-1080 cells (2 × 10^4 per well) were seeded in 96-well tissue culture plates in 100 μL cell culture medium. Cells were incubated for 48 h in triplicates with the compounds of interest. The cytotoxic effect was assessed by crystal violet staining and measured at 595 nm. To normalize cell viability values each plate included a triplicate of cells treated with DMSO, the vehicle of the compound to calculate 100% viable cells. At the same time, a triplicate of cells was simulated with a cytotoxic combination (200 ng/mL TNF, 200 ng/mL CD95L, 200 ng/mL TRAIL, 25 µg/mL CHX, 1% (w/v) sodium azide) to elucidate maximal cell death, and thus 0% viability. All other viability values were normalized depending on the averages of these triplicates and evaluated by the Graph Pad Prism 5 software (La Jolla, CA, USA).

Hela cells = experiment: Cell viability, crystal violet staining, Hela; format: cell-based, human; conditions: 48 h; for first concentration with significant reduction in cell viability: versus control; for IC50: Homo sapiens, HeLa
Method: as §1, §2, §3, §4

Caco-2 cells = experiment: Cell viability, MTT assay, Caco-2; format: cell-based, human; conditions: for IC50: Homo sapiens
Method: as §1, §2, §3
(§5) The cell viability of A549 and Caco-2 cells was measured using MTT assays. Cells were incubated for 48 h in triplicates with the compounds of interest. […] Cells were seeded in 96-well plates at a density of 5 × 10^3 cells/well and were maintained in complete media. After adherence for 48 h, cells were treated with different concentrations of newly synthesized compounds ranging from […]. The plates were incubated at 5% CO2 and 37 °C. After 48 h, the medium was discarded, and cells were incubated with 100 μL MTT (Serva, Heidelberg, Germany) solution (0.5 mg/mL) for 3 h at 5% CO2 and 37 °C. Finally, the reagent was discarded and replaced with 100 μL DMSO. The optical density was measured at a wavelength of 570 nm (Tecan, Infinite F50, Magellan reader control and data analysis software, Mennedov, Switzerland). The percentage cell viability data were obtained by normalization of the optical density (OD) values for all groups to the OD of the control group.

A549 cells [1] = experiment: Cell viability, MTT assay, A549; format: cell-based, human; conditions: for first concentration with significant reduction in cell viability / IC50: A549, 48 h; for first concentration with significant reduction in cell viability: versus control; for IC50: Homo sapiens
Method: as §1, §2, §3, §5

BCR-ABL tyrosine kinase = test system: BCR-ABL tyrosine kinase; set-up: method as in earlier work; conditions: literature statement; cited from earlier work
A549 cells [2] = experiment: Apoptosis assay, annexin V flow cytometry; format: cell-based, human
Method: (§6) In order to exclude apoptotic effects as a mechanism for the observed anticancer activity of the compounds and according to the in silico results, induction of apoptosis by compound 7 was examined using an annexin V flow cytometry assay (Figure 10a).
(§7) Figure 10 (a) Apoptosis analysis in A549 cells following treatment of cells with compound 7 at IC50 concentration. Flowcytometry was conducted using Alexa Fluor 488 annexin V conjugate. […] (b) Western blot analysis showing cleaved caspase-3 protein expression level. […] (c) Proliferation analysis (Ki67) in A549 cells following treatment cells with compound 7 at IC50 concentration. The analysis was done using flow cytometry and the Ki-67 FITC antibody.
For evaluating cell apoptosis, cells were plated in 6-well plates at a density of 2 × 10^4 cells per well. After incubation for 24 h, 70% confluency is reached. Cells were then labelled using the FITC Annexin V apoptosis detection kit I (BD Pharminogen, San Diego, CA, USA) according to manufacturer’s instructions (Cell Signaling Technology; Flow Cytometry, Methanol Permeabilization Protocol) and analysed by using BD FACS Calibur flow cytometry and Cell Quest™ software.

[3] = test system: cleaved caspase-3 protein; experiment: Western blot of cleaved caspase-3 protein expression; format: cell-based; conditions: IC50 concentration, versus untreated cells
Method: as §6, §7
A western blot assay was carried out to examine cleaved caspase-3 protein expression levels following the different treatments with different concentrations of the compound that were employed in the current study. Cells (5 × 10^5 cells/well) were seeded in 12-well plates and were induced the next day with the compounds of interest for 48 h. […] The proteins of interest were detected with a suitable primary antibody (Anti-Caspase-3, 17,19 kD, Rabbit polyclonal ≠ 9661, from Cell Signaling Technology, Beverly, MA, USA) and horseradish peroxidase conjugated secondary antibodies (Dako, Glostrup, Denmark and Cell Signaling Technology, Beverly, MA, USA).

[4] = test system: Ki67 expression in A549 cells; experiment: Proliferation assay, Ki67 expression by flow cytometry; format: cell-based, human; conditions: A549, IC50 concentration, 48 h; control cells 85.61%
Method: as §7
Ki67 expression was determined using a flow cytometry assay. […] The percentage of cells labelled using Ki67 antibody in the control cells was 85.61%, whereas those labelled with the same antibody following treatment with compound 7 was 68.06%.
For evaluating the proliferation status of cells, cells were plated in 6-well plates at a density of 2 × 10^4 cells per well for the cell proliferation assay. After incubation for 24 h, 70% confluency is reached.

COc1ccc(/C=N/Nc2ncnc3c2cnn3-c2ccccc2)cc1OC [Compound 6]
ALP (male albino rats): 2 ± 0.12 U/L
ALT (male albino rats): 44 ± 5.7 U/L
AST (male albino rats): 100 ± 9.8 U/L
Albumin (male albino rats): 4.6 ± 1.8 g/dL
Bilirubin (male albino rats): 0.12 ± 0.12 mg/dL
Cholesterol (male albino rats): 69 ± 7.8 mg/dL
Triglyceride (male albino rats): 75 ± 6.5 mg/dL
Overall in vivo toxicity assessment (male albino rats): safe compounds comparable to the healthy control group
effect on cell viability (HT1080 cells; HT1080, up to 500 µM, 48 h, data not shown): did not show any significant decrease in the cell viability
effect on cell viability (Hela cells; Hela, up to 500 µM, data not shown): did not show any significant decrease in the cell viability
effect on cell viability (Caco-2 cells; Caco-2, up to 500 µM, 48 h, data not shown): did not show any significant decrease in the cell viability
effect on cell viability (A549 cells [1]; A549, up to 500 µM, 48 h, data not shown): did not show any significant decrease in the cell viability
inhibition of BCR-ABL tyrosine kinase (BCR-ABL tyrosine kinase): capable of inhibiting BCR-ABL tyrosine kinase

COc1ccc(C=NNc2ncnc3c2cnn3-c2ccccc2)cc1 [Compound 5, 2-(4-Methoxybenzylidene)-1-(1-phenyl-1H-pyrazolo[3,4-d]pyrimidin-4-yl)hydrazine]
ALP (male albino rats): 2.1 ± 0.52 U/L
ALT (male albino rats): 43 ± 5.2 U/L
AST (male albino rats): 102 ± 8.7 U/L
Albumin (male albino rats): 4.4 ± 0.37 g/dL
Bilirubin (male albino rats): 0.11 ± 0.12 mg/dL
Cholesterol (male albino rats): 71 ± 4.8 mg/dL
Triglyceride (male albino rats): 72 ± 8.6 mg/dL
Overall in vivo toxicity assessment (male albino rats): safe compounds comparable to the healthy control group
first concentration with significant reduction in cell viability (HT1080 cells): 50 µM
IC50 (HT1080 cells): 96.2 µM
first concentration with significant reduction in cell viability (Hela cells; Hela): 50 µM
IC50 (Hela cells): 74.8 µM
IC50 (Caco-2 cells; Caco-2, 48 h): 76.9 µM
first concentration with significant reduction in cell viability (A549 cells [1]): 50 µM
IC50 (A549 cells [1]): 148 µM

COc1cc(C=NNc2ncnc3c2cnn3-c2ccccc2)cc(OC)c1OC [Compound 7, 2-(3,4,5-Trimethoxybenzylidene)-1-(1-phenyl-1H-pyrazolo[3,4-d]pyrimidin4yl)hydrazine]
ALP (male albino rats): 1.8 ± 0.88 U/L
ALT (male albino rats): 42 ± 7.2 U/L
AST (male albino rats): 103 ± 8.8 U/L
Albumin (male albino rats): 4.6 ± 1.1 g/dL
Bilirubin (male albino rats): 0.11 ± 0.32 mg/dL
Cholesterol (male albino rats): 71 ± 5.8 mg/dL
Triglyceride (male albino rats): 77 ± 7.5 mg/dL
Overall in vivo toxicity assessment (male albino rats): safe compounds comparable to the healthy control group
first concentration with significant reduction in cell viability (HT1080 cells): 25 µM
IC50 (HT1080 cells): 43.8 µM
first concentration with significant reduction in cell viability (Hela cells; Hela): 12.5 µM
IC50 (Hela cells): 17.5 µM
first concentration with significant reduction in cell viability (Caco-2 cells; Caco-2, 48 h, versus control): 1 µM
IC50 (Caco-2 cells; Caco-2, 48 h): 73.1 µM
first concentration with significant reduction in cell viability (A549 cells [1]): 1 µM
IC50 (A549 cells [1]): 68.8 µM
effect on viability of cells through apoptosis (A549 cells [2]; A549, 24 h incubation, versus untreated group): no significant effect
percentage gating in the lower left quadrant (annexin V) (A549 cells [2]; A549, IC50 concentration, control untreated 97.8): 97.58%
change in cleaved caspase-3 protein expression level [3]: no significant change
percentage of cells labelled using Ki67 antibody [4]: 68.06%
